Experimental findings from patent publication US20100317711A1, “STEM-LIKE CELLS AND METHOD FOR REPROGRAMMING ADULT MAMMALIAN SOMATIC CELLS” (GLIAMED, INC., priority 2009, published 2010) are described below.

Assay [1] has as its system normal human dermal fibroblasts (NHDF). Briefly: Oct4 immunostaining of normal human dermal fibroblasts cultured with GM1485. The class given is cell-based. The note with it: GM1485 100 μM in serum free medium, 72 hours, versus vehicle. The method, then:
The fibroblasts were harvested from a skin sample was taken from the face of a human cadaver. The skin sample was cut into small fragments and digested with dispase overnight (4° C.). Thereafter the epidermis was separated from the dermis. The dermis fragments were further digested with collagenase for approximately 1 h at 37° C., and then diluted with culture medium and filtered to obtain a suspension of dermal cells. The dermal cells were next purified via magnetic bead separation to yield normal human dermal fibroblasts (“NHDFs”). Second passage normal human dermal fibroblasts (NHDF) were seeded onto poly-D-lysine coated coverslips within wells of 24-well plates, at a density of 4,000 cells/well and cultured overnight in NHDF growth medium from PromoCell GmbH (NHDF GM) consisting of: The NHDF GM was aspirated, the wells were rinsed twice with Hank's balanced salt solution (HBSS), and 400 μL of serum free medium (SFM) supplemented with GM1485 at a final concentration of 100 μM or the vehicle the drug vehicle (SFM). […]

The test system of assay [2] is human fibroblasts. Briefly: Reprogramming of GM1485-treated human fibroblasts under neural inducing conditions (GFAP, TuJ1 staining). The class given is cell-based. To be noted: GM1485 100 μM, then FGF2 72 hours and rhEGF 7 days. The method, then:
On day one of this experiment, the human fibroblasts, were plated, grown overnight as described above and then changed to DMEM supplemented with 10% heat inactivated FCS, 1% DMEM non-essential amino acids (Gibco), penicillin/streptomycin/glutamine (Gemini Bioproducts) and amphotericin B with or without GM1485 for 1 day, and reduced the concentration of serum over an 16 h period until the serum was absent, however the concentration of GM1485 was maintained at 100 μM throughout. The cells were maintained in SFM+/−GM1485 and 10 ng/mL FGF2 for 72 hours. On day 4 of the experiment, the culture environment was changed to 0.5 mL of a SFM without FGF2, but with rhEGF at 20 ng/ml. The cells were maintained in SFM supplemented with 20 ng/ml rhEGF for an additional 7 days. On the 11th day all the cells were fixed by aspirating the medium from the wells and replacing it with 0.5 mL/well of 4% paraformaldehyde in phosphate buffered saline (“PBS”) for 15 minutes at room temperature. Thereafter, the cells were briefly rinsed with PBS at room temperature, then washed with PBS at room temperature in three cycles of 5 minutes each. […] FIG. 2 is comprised of a set of 4 fluorescence photomicrographs, shown in inverted mode to allow full visualization in grayscale. […]

The test system of assay [3] is murine fibroblasts, 3T3 cells. Briefly: Oct4 immunostaining of murine fibroblasts (3T3 cells) cultured with GM1485. The class given is cell-based. The note with it: GM1485 versus vehicle, no neural induction. The method, then: In another experiment, the murine fibroblasts, 3T3 cells were cultured in accordance with the protocol described, supra., for Example 1, except that they were not entered into a neural induction environment. Rather, the murine fibroblasts were fixed and stained with rabbit αOct4 antibody. The photomicrographs in FIG. 3 were taken using bright field microscopy using a 20× objective, except the inset, which is a 20× phase contrast photomicrograph of the same microscopic field into which it is set. The arrows point to the corresponding nuclei in the bright field and phase micrographs of the vehicle treated murine fibroblasts. Only the GM1485 treated murine fibroblasts express Oct4.

Assay [4] has as its system IGF2 expression. Put plainly: cDNA array analysis of gene expression after initiating reprogramming with GM1485. The class given is cell-based, human. The note with it: 48 hours after initiating reprogramming, GM1485 versus vehicle treated cells. The procedure: It has previously been shown that RIL treatment alters gene expression and that the biologic effects of these compounds are dependent upon cell-cell signaling. Included among these changes are alterations in the secretion of soluble factors (Lowry W E et al. 2008, Proc Natl Acad Sci USA 105, 2883-2888). To begin to explore what changes in gene expression might play a role GM1485-mediated iPS induction, RNA for cDNA array analysis was harvested from GM1485 and vehicle treated cells 48 hours after initiating reprogramming with GM1485.

Assay [5] has as its system Adult, facial skin-derived human fibroblasts. Put plainly: IGF2 blockade during GM1485-mediated iPS induction and neural re-differentiation of human fibroblasts. The class given is cell-based. The method, then:
To test the role of IGF2 in GM1485-mediated iPS induction, an α-IGF2 blocking antibody was included at the onset of induction and maintained in culture for three days.
Adult, facial skin-derived human fibroblasts were cultured in the presence of 100 μM GM1485 in chemically defined medium for 72 hours with (b) or without (a) 40 ng/ml mAb IGF2, a neutralizing antibody (Abcam, Inc.). One set of cells was fixed and stained with rabbit αOct4 (a and b). IGF2 signaling is required of the reprogramming from somatic cells to iPS cells. On the chance that the cells maintained plasticity, cells were continued in culture, but they were switched to culture conditions under which ES cells differentiate along a neural pathway. In specific, the cells were rinsed in PBS and cultured with chemically defined medium supplemented with rhFGF2, 10 ng/ml for an additional 72 hours, after which the cells were rinsed in PBS and the culture medium was replaced with chemically defined medium supplemented with rhEGF, 20 ng/ml. After seven days the cells were rinsed in PBS, fixed in 4% paraformaldehyde in PBS, and processed for immunocytochemistry with TuJ1, a mAb that recognizes neuron-specific βIII-Tubulin.

Assay [6] deals with human keratinocytes. Put plainly: In vitro treatment of human keratinocytes with GM1485 with or without rhIGF2 (Oct4, Sox2). The class given is cell-based.
Assay [7] relates to adult rats. Briefly: Cardiac ischemic injury (left anterior descending artery ligation) in adult rats. The class given is in vivo, rat. The note with it: 5 mg/kg daily intraperitoneal, 30 days after infarction. The method, then:
Adult rats underwent thoracotomy, the heart was isolated, the left anterior descending artery was identified and ligated at its branch point from the left circumflex artery, causing a massive infarction of the left ventricle. The chest was closed, lungs reinflated and the skin closed. The animals began a 30 day regimen of daily intraperitoneal injections of either GM1485 at 5 mg/kg or the saline vehicle in which it was dissolved. On the 30th day after infarction the animals were sacrificed, the hearts harvested, fixed and cryosectioned. […] The histology of the vehicle treated tissue is consistent with an extensive myocardial infarction. […] FIG. 5 is a 2×2 matrix of photomicrographs of cardiac tissue 30 days after infarction and treatment with either vehicle in the top two slides or GM1485 in the bottom two slides. The left upper and lower sections were stained with an αOct4 antiserum and the right upper and lower sections were stained with αSox2 (mAb R&D Systems). Only the GM1485 treated cardiac tissue expresses Oct4 and/or Sox2.

Molecules are shown by their SMILES.

Take `CCC(C)(C)C(=O)C(=O)N1CCC[C@H]1C(=O)O` [GM1485, (2S)-1-(3,3-dimethyl-1,2-dioxopentyl)-2-pyrrolidinecarboxylic acid]: the “Oct4 expression (anti-OCT 3/4 immunostaining)” value in assay [1] is “upregulation of Oct4”. In addition, the “reprogramming of fibroblasts to neurons or astrocytes (GFAP, TuJ1)” value in assay [2] is “acquire the ability to be reprogrammed to an alternative cell fate”. The “Oct4 expression (rabbit αOct4 staining)” value in assay [3] is “express Oct4”. Besides, in assay [4], the IGF2 expression increase was 550% and the “number of genes upregulated by 2 fold or more” value is given as “Over 100”. Further, in assay [5] (100 μM GM1485 72 hours without IGF2 blockade, then rhFGF2 72 hours, rhEGF seven days), the “differentiation to neuronal cells (TuJ1, βIII-Tubulin)” value is reported as “differentiated to neuronal cells”. Also, in assay [5] (100 μM GM1485, 72 hours, without IGF2 blockade), the “reprogramming to iPS cells (rabbit αOct4 staining)” value is listed as “reprogrammed”. In assay [6] (GM1485 alone, in vitro), the iPS induction entry is “has not previously resulted in iPS induction”. In addition, in assay [6] (GM1485 with rhIGF2 included in cultures), the “Oct4 and Sox2 expression” value is “upregulate Oct4 and Sox2 with the same kinetics as treated fibroblasts”. Further, the “histology of heart tissue (H&E stained section)” value in assay [7] (versus saline vehicle) was “consistent with normal myocardium”. In addition, the “Oct4 and Sox2 expression in cardiac tissue” value in assay [7] (versus vehicle) was “Oct4 and Sox2 are upregulated”.
